This note sets out measurements from publication PMC11423184 (Advanced Science, 2024).

The assay concerns the target T1, SWELL1 channel (VRAC; SWELL1 = LRRC8A) (Mus musculus, UniProt Q80WG5).
T1 construct: endogenous VRAC in mouse primary astrocytes and hippocampal CA1 neurons, full length; neuronal current absent in NEX-cKO
T1 sequence (Q80WG5 1-810): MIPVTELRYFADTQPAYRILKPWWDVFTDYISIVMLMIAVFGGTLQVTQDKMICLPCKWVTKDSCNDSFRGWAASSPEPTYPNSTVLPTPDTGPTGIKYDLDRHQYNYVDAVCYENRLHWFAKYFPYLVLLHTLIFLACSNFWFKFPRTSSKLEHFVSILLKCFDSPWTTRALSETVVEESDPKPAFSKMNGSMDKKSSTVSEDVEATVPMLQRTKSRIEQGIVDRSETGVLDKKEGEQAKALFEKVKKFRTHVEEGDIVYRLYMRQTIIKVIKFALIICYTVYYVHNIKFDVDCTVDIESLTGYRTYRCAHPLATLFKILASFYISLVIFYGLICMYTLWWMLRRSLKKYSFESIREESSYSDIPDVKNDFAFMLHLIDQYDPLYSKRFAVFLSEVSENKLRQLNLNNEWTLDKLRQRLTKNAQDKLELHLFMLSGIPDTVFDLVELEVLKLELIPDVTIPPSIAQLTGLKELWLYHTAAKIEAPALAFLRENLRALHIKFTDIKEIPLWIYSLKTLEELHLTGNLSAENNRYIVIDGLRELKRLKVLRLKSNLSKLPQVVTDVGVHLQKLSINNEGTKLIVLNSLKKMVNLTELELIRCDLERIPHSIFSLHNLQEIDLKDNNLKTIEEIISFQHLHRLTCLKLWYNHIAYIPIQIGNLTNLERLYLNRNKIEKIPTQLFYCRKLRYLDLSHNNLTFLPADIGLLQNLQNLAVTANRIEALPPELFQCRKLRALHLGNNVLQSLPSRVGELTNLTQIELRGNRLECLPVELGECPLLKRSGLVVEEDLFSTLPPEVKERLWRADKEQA
The assay can be described thus: whole-cell patch clamp, primary astrocytes. In kind it is cell-based. To be noted: hypotonicity-induced SWELL1 currents; concentration not given. In general terms: The patch-clamp technique gives a direct electrical read-out from membranes.

On to `CC(=O)CC(c1ccccc1)c1c(O)c2ccccc2oc1=O` (stereo not shown) [Warfarin], for which the “whole-cell patch clamp, primary astrocytes” value is “Warfarin, another anticoagulant of the same family, failed to inhibit hypotonicity‐induced SWELL1 currents”.
